Measurements as given in ChEMBL document CHEMBL1201862, “PubChem BioAssay data set” (2004).
Calls of active or inactive are those of the source.

Legend:
[1] = molecular target: T1, Short transient receptor potential channel 4 (Mus musculus, UniProt Q9QUQ5); assay: mouse TRPC4 channel inhibitors, dose response, cell-based, HEK293 TRPC4/mu-opioid, Fluo-4 calcium (AID 434942); assay type: functional;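 further: potency of inhibitors blocking the TRPC4 calcium response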
T1 sequence (Q9QUQ5 whole entry): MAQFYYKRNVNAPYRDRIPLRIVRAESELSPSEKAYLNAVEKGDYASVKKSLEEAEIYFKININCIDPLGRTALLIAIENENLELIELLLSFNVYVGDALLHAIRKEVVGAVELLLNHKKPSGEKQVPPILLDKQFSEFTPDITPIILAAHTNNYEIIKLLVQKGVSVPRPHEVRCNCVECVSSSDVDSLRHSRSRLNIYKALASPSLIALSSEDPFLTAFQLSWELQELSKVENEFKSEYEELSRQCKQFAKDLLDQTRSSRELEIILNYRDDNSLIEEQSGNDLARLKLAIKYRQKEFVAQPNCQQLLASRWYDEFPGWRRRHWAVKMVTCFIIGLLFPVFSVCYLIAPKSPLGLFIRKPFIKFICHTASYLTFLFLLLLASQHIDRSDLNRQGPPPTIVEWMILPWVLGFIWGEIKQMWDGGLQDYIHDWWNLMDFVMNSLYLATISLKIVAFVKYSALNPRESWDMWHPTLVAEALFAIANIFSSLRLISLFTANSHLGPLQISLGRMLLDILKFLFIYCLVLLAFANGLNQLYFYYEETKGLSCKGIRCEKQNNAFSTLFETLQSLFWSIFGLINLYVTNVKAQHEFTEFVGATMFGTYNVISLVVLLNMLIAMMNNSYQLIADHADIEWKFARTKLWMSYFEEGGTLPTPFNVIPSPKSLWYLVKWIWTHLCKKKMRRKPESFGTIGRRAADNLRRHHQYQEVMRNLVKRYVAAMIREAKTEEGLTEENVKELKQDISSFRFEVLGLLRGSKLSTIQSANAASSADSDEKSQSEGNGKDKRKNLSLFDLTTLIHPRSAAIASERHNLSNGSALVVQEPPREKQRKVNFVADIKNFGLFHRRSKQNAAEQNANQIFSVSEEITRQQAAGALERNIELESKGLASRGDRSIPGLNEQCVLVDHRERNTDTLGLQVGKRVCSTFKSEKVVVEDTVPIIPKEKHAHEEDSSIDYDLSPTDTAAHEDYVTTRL

[2] = THP-1 cell cytotoxicity, dose response, cytotoxicity control for non-replicating M. tuberculosis project (AID 489025); assay type: functional
[3] = IGROV1 ovarian cancer cell cytotoxicity, dose response, PAX8 inhibitor project, plate reader, dry powder samples (AID 743043); assay type: functional, cell-based; details: IGROV-1
[4] = cytotoxicity in OVCAR8 ovarian cancer cells, dose response, PAX8 project, cell-based, plate reader, dry powder samples (AID 743197); assay type: functional; details: OVCAR-8
Paired box protein Pax-8 = Paired box protein Pax-8 (Homo sapiens, UniProt Q06710); assay: inhibitors of PAX8-driven TPO luciferase reporter, dose response, RMG-I cells, cherry-pick (AID 687027); assay type: functional, cell-based;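 further: luciferase reporter driven by Pax8 target thyroperoxidase promoter measured by SteadyGlo luminescence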
Streptococcus = assay: Group A Streptococcus viability loss, dose response, counter-screen for streptokinase expression inhibitor project, luminescence, BacTiterGlo (AID 1915); assay type: functional, organism-based;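 further: potency for reduction of bacterial viability or growth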
[5] = system: Streptococcus sp. 'group A'; assay: growth inhibition of control SK(-) GAS strain, dose response, counter-screen for streptokinase expression inhibitor project, luminescence, kanamycin, BacTiterGlo, confirmation (AID 1900); assay type: functional, organism-based
Streptokinase A = molecular target: T2, Streptokinase A (Streptococcus pyogenes serotype M1, UniProt P10520); assay: S. pyogenes streptokinase expression inhibitors, potency, dose response, plasminogen activation absorbance, OD405 (AID 1914); assay type: functional, Streptococcus pyogenes M1 GAS;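 further: secreted streptokinase activity via plasminogen activation per viability signal from cell pellet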
T2 sequence (P10520 whole entry): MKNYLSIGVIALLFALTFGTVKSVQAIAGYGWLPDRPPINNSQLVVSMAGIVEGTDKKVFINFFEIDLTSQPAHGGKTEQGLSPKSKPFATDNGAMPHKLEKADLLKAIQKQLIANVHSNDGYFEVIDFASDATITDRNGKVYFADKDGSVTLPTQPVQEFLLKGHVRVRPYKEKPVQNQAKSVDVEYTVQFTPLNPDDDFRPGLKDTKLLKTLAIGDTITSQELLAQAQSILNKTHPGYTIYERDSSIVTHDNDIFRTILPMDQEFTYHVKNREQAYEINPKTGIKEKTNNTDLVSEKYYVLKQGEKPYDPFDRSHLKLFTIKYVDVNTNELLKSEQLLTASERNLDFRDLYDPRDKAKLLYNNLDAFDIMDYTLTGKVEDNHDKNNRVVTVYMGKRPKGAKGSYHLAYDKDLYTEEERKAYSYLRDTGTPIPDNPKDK

[6] = NIH:OVCAR-3 ovarian cancer cell cytotoxicity, dose response, PAX8 inhibitor project, plate reader, dry powder samples (AID 743044); assay type: functional, cell-based
Nonstructural protein 1 = Nonstructural protein 1 (Influenza A virus, UniProt Q194T2); assay type: functional, Influenza A virus (A/California/07/2009(H1N1))
[7] = molecular target: T3, Histone-lysine N-methyltransferase NSD2 (Homo sapiens, UniProt O96028); assay type: biochemical
T3 sequence (O96028 whole entry): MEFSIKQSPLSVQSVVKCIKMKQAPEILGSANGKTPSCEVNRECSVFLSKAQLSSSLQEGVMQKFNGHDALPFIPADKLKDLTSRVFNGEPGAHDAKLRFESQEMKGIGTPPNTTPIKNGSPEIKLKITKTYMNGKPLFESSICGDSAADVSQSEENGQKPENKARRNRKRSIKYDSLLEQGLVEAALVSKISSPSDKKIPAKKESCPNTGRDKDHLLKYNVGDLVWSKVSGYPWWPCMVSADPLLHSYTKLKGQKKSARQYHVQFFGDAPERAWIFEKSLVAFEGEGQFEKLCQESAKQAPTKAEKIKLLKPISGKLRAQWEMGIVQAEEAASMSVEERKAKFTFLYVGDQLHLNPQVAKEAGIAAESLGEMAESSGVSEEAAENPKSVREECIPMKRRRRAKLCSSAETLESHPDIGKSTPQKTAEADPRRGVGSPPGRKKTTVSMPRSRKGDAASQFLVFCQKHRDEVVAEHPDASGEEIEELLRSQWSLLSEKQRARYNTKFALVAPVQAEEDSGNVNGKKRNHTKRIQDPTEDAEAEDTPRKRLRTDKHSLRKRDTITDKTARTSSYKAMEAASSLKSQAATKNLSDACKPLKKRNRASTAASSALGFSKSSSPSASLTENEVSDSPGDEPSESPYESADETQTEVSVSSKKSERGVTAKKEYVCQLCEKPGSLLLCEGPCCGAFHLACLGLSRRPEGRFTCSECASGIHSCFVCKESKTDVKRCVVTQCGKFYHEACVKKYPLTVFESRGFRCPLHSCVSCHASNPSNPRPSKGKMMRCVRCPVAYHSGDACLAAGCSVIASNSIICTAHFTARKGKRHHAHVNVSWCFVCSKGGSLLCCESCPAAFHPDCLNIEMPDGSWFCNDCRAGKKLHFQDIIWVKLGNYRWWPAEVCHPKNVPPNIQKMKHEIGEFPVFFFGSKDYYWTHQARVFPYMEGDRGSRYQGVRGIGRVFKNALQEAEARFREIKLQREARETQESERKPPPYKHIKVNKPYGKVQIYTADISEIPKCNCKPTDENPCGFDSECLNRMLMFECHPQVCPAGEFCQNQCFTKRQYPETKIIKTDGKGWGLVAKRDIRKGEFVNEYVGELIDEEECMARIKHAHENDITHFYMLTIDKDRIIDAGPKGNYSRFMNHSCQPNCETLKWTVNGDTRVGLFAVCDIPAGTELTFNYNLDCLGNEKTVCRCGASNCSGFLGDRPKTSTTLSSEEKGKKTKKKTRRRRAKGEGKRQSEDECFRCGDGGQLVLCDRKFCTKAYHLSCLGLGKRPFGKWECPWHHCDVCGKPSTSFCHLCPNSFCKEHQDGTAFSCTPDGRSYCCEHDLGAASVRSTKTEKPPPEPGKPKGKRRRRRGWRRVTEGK

Protein RecA = molecular target: T4, Protein RecA (Mycobacterium tuberculosis, UniProt P9WHJ3); assay: Fluorescence Cell-Free Homogeneous Dose Retest to Identify Inhibitors of RecA-Intein Splicing Activity. [Related pubchem assays (depositor defined):AID2097, AID2223, AID489010, AID492950]; assay type: functional
T4 sequence (P9WHJ3 whole entry): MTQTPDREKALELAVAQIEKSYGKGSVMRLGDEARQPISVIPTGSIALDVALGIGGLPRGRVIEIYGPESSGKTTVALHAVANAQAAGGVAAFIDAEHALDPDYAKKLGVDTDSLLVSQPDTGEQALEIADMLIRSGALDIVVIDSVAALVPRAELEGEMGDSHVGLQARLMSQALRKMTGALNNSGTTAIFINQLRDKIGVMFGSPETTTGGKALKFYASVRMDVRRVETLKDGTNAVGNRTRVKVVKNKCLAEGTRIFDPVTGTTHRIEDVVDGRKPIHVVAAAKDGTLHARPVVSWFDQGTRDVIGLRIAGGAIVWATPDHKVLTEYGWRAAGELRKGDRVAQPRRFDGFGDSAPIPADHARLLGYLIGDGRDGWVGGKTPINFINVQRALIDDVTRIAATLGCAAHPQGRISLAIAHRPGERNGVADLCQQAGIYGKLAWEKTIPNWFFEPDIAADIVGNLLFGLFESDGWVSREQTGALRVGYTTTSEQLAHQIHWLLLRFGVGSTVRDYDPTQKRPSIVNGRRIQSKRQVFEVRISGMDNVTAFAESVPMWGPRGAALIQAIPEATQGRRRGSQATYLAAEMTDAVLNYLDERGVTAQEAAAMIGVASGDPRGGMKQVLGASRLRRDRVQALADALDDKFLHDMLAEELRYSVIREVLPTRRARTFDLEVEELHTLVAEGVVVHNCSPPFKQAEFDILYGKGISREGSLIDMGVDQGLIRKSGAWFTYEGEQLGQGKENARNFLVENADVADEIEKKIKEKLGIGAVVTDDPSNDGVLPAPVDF

[8] = molecular target: T5, Replicative DNA helicase DnaB (Mycobacterium tuberculosis, UniProt P9WMR3); assay: DnaB intein splicing inhibitors, dose response, biochemical, cell-free fluorescence (AID 449749); assay type: functional
T5 sequence (P9WMR3 whole entry): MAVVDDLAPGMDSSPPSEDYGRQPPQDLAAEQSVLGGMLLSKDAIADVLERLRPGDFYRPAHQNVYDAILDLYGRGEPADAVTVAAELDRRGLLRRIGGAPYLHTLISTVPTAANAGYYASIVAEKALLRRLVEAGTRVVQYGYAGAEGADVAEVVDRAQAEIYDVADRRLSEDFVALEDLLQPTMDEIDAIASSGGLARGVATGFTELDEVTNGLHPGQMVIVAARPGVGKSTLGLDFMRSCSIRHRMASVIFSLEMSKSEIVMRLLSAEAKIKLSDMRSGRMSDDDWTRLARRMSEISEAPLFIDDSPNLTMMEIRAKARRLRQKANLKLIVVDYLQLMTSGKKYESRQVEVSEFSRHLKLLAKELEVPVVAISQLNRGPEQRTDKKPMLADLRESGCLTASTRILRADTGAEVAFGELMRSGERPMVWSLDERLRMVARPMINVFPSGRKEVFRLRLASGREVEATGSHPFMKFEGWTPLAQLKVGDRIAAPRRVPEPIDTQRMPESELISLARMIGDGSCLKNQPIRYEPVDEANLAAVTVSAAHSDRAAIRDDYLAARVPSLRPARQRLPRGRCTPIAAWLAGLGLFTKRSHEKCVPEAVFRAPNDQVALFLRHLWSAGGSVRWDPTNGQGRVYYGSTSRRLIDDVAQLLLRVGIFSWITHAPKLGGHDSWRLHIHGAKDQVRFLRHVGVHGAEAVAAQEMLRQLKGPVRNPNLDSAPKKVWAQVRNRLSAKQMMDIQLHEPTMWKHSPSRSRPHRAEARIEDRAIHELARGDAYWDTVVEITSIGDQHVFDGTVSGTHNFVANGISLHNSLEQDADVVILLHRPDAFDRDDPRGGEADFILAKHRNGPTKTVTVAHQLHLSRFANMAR

Sequence of Paired box protein Pax-8 (Q06710 whole entry): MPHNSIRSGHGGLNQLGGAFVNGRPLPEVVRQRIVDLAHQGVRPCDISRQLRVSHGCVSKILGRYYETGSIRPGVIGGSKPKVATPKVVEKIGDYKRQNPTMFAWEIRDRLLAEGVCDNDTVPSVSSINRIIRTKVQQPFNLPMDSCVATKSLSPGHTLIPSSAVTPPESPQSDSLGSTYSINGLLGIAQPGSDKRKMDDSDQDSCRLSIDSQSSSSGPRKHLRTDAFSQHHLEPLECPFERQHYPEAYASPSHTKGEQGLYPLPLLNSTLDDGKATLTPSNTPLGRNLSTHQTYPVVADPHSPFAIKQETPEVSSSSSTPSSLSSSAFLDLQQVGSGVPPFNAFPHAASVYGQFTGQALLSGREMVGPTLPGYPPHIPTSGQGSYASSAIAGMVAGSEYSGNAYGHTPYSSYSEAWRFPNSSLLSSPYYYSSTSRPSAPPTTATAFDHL
Sequence of Nonstructural protein 1 (Q194T2 whole entry): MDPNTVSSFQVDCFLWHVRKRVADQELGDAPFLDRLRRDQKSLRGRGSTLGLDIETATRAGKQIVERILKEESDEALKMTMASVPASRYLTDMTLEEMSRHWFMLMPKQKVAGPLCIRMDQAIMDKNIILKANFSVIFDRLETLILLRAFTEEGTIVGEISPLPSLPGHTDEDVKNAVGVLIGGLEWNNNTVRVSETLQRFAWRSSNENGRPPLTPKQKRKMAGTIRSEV

| Structure (SMILES) | EC50 [1] | AC50 [3] | AC50 [4] | AC50 (Paired box protein Pax-8) | other results |
| --- | --- | --- | --- | --- | --- |
| CC(=O)Oc1ccc(/C=C(\NC(=O)c2ccco2)C(=O)NCc2ccccc2)cc1 | 1.68 µM (active) |  |  |  |  |
| Cc1nn(C)cc1/C=N/NC(=O)c1sc2ccccc2c1Cl |  |  |  |  | CC50 [2]: > 40 µM (active) |
| C[C@H](CO)N1C[C@H](C)[C@H](CN(C)Cc2ccc(Cl)c(Cl)c2)OCCCC[C@H](C)Oc2ccc(NC(=O)Nc3ccc(C(F)(F)F)cc3)cc2C1=O |  | 43.1 µM (active) | 63 µM (active) | 5.3 µM (active) |  |
| COc1cc2c(cc1OC)C(C)N(CCc1ccc(Cl)cc1)CC2 (stereo not drawn) | 0.105 µM (active) |  |  |  |  |
| C[C@@H]1CCCCO[C@@H](CN(C)C(=O)Nc2cccc3ccccc23)[C@H](C)CN([C@H](C)CO)C(=O)c2cc(NS(=O)(=O)c3ccc(F)cc3)ccc2O1 |  | 45.5 µM (active) | > 70 µM (inactive) | 5.4 µM (active) |  |
| Cc1ccc(Cn2c(Cc3ccccc3)nc3ccccc32)cc1 | 0.668 µM (active) |  |  |  | EC50 (Streptococcus): 61.3 µM (active); EC50 [5]: 12.5 µM (active); EC50 (Streptokinase A): > 150 µM (not active) |
| Cc1cccc(S(=O)(=O)N2CC[C@@H]3[C@H](CO)N(C)c4ccc(C#Cc5ccc(F)cc5)cc4[C@@H]32)c1 |  | 41.8 µM (active) | > 60 µM (inactive) | 8.27 µM (active) |  |
| C[C@@H]1CN([C@@H](C)CO)C(=O)c2cc(NC(=O)c3ccccc3)ccc2O[C@@H](C)CCCCO[C@@H]1CN(C)Cc1ccc(C(F)(F)F)cc1 |  |  | > 70 µM (inactive) | 9.74 µM (active) | AC50 [6]: 30.4 µM (active) |
| O=C(N/N=C/c1ccccc1O)c1cc[n+]([O-])cc1 |  |  |  |  | IC50 (Nonstructural protein 1): 4.49 µM (active) |
| Cc1[nH]n(-c2ccccc2)c(=O)c1C(C[N+](=O)[O-])c1ccc(Cl)cc1 (stereo not drawn) |  |  |  |  | AC50 [7]: 9.52 µM (active); EC50 (Protein RecA): 3.22 µM (active); AC50 [8]: 5.32 µM (active) |
